Biological target: PIK3CD (Human) (UniProt O00329)
Test: Inhibition of PIK3CD Kinase Activity

Sequence of PIK3CD (Human) (O00329 whole entry, looked up): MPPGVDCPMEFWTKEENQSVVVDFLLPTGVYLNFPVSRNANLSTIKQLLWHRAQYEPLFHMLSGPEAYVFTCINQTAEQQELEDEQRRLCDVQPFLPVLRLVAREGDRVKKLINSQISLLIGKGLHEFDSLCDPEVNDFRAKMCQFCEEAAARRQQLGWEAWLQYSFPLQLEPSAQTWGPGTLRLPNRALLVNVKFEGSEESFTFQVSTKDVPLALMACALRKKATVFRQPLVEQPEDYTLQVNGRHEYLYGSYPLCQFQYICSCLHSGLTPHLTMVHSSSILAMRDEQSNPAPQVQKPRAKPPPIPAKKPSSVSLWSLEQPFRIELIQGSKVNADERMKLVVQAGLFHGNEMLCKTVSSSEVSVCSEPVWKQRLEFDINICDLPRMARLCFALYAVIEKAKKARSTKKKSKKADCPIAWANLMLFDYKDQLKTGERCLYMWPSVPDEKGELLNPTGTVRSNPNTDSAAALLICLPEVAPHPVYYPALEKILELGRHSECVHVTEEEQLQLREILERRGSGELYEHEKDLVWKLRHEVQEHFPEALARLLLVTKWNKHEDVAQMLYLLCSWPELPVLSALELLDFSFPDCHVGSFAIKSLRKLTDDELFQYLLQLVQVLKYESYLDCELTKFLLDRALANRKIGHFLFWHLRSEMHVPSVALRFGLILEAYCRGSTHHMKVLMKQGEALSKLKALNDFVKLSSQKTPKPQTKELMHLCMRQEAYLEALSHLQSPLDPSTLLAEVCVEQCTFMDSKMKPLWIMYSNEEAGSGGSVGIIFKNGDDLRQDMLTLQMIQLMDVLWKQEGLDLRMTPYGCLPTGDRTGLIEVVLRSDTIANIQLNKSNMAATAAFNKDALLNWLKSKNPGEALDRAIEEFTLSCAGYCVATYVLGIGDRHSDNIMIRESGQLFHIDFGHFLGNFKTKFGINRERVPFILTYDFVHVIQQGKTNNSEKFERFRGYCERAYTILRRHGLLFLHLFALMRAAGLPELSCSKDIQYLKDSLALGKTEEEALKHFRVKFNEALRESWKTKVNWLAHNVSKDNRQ

SMILES: CCn1c(CN2CCN3CCOC[C@H]3C2)nc2c(N3CCOCC3)nc(-c3cccc4[nH]ccc34)nc21
- IC50: < 0.5 µM
